The results in this text go back to patent US20170001988A1, “PIPERIDINE AND PIPERAZINE DERIVATIVES AND THEIR USE IN TREATING VIRAL INFECTIONS AND CANCER” (THE UNITED STATES OF AMERICA, AS REPRESENTED BY THE …, priority 2013, published 2017).

Molecules are shown by their SMILES.

One assay has as its system HCV replicon GT 2a. The format is cell-based.
The subject of the next assay is HCV-Luc. The experiment in a line: HCV-Luc infection assay. It counts as cell-based. As to conditions: Hepatitis C virus; at 10 nM.
A further assay relates to GT 2a replicon RNA. As to the kind of experiment: Transient replicon assay, GT 2a. It counts as cell-based, HCV. For orientation: Replicon systems follow genome replication, usually without infectious particles.
Assay [1] deals with HCVcc, genotype 2a, JFH-1 strain. As to the kind of experiment: TCID50 determination: re-infection of naive Huh 7.5.1 cells with medium from the HCVcc assay. The format is cell-based, HCV. As to conditions: medium with extracellular virus used to re-infect naive Huh 7.5.1 cells. As for the experimental part:
FIG. 4B illustrates the TCID50 of naïve Huh 7.5.1 cells that were infected using medium collected in the HCVcc assay run using 0.32, 1.0, and 3.2 μM concentrations of NCGC00345021 and 0.032, 0.10 and 0.32 μM concentrations of Cyclosporin A.
(§1) Cell Culture-derived HCV (HCVcc, genotype 2a, JFH-1 strain) system provides direct evidence of anti-HCV activity of the compounds. Determination of both extracellular and intracellular HCV levels can help evaluate whether the compounds interfere early-stage or late-stage infection. […] Cyclosporin A was tested in parallel to serve as control compound targeting early-stage HCV infection. […] At the highest concentration, cyclosporin A caused approximately 4-log fold reduction in intracellular RNA copies, while the extracellular level reduced less than […]. On the contrary, NCGC00345021 led to only about 1-log fold decrease in intracellular RNA copies when causing 3-log fold reduction in extracellular RNA level. Clearly, when the concentration increased, NCGC00345021 led to a more dramatic reduction in extracellular RNA copies.

The subject of a further assay is HCVpp GT 1a. The format is cell-based, HCV.
The next assay deals with VSVpp. It counts as cell-based.
Assay [2] deals with HCVcc, genotype 2a, JFH-1 strain. The experiment in a line: HCVcc assay, extracellular and intracellular viral RNA by quantitative real-time PCR. The format is cell-based, HCV. Conditions: at the highest concentration. As for the experimental part: Huh 7.5.1 cells were seeded in 12-well plates (10^5 cells/well) and cultured overnight. HCVcc was used to infect the cells with the treatment of compounds at 10 μM. Virus-containing medium was removed after 4 h incubation and compound treatment was added back followed by incubation for additional 48 h. Intracellular and extracellular viral RNA levels were evaluated by quantitative real-time PCR. The results are illustrated in FIG. 1 and are the means of three replicates ±SEM. […] Cyclosporin A at 10 μM was used as positive control.
Cell Culture-derived HCV (HCVcc, genotype 2a, JFH-1 strain) system provides direct evidence of anti-HCV activity of the compounds.
as §1
In general terms: Quantitative PCR measures a nucleic acid by following its amplification.

For a further assay, the system named is Dengue RVP. The experiment in a line: Dengue Reporter Virus Particles (RVPs) reproducibility assay. As to conditions: increasing concentrations; Huh 7.5.1 cells; luciferase 48 h.
The test system of the next assay is HCVsc, genotype 2a. The format is cell-based, HCV.

Protocol for Dengue RVP: Huh 7.5.1 cells seeded in 96-well plates (10^4 cells/well) were cultured overnight. […] The results are means of three replicates ±SEM.

For `COc1ccc(CN2CCC(N(CCc3ccccc3)Cc3ccccc3)CC2)c(OC)c1` [NCGC00345021, N-Benzyl-1-(2,4-dimethoxybenzyl)-N-phenethylpiperidin-4-amine], the “inhibitory effect in replicon GT 2a cell line” value with HCV replicon GT 2a (10 μM, luciferase 48 h) was “did not show any inhibitory effect”. Moreover, in the assay with HCV replicon GT 2a (mean of five replicates ±SEM), the “% RLU at 10 μM, HCV subgenomic replicon GT 2a cell line” value amounted to 54.4 ± 2.96 % RLU. In addition, the inhibition (as a rule, how much of the control response was suppressed) at 0.01 µM with HCV-Luc was above 90%. The “inhibition of viral replication, transient GT 2a replicon” value in the assay with GT 2a replicon RNA (10 μM, Huh 7.5.1 cells) is recorded as “modest inhibition”. Further, the “% RLU at 10 μM, HCV subgenomic replicon Transient GT 2a” value with GT 2a replicon RNA (mean of five replicates ±SEM) turned out to be 139 ± 16.4 % RLU. Also, the TCID50 values result in [1] was “dose-dependent reduction”. Moreover, the “inhibitory activity in HCVpp GT 1a” value with HCVpp GT 1a (10 μM, Huh 7.5.1 cells) is on record as “low inhibitory activity”. For the same compound, the “% RLU at 10 μM, HCVpp GT 1a” value with HCVpp GT 1a (mean of five replicates ±SEM) was 66.3 ± 9.49 % RLU. The “% RLU at 10 μM, VSVpp” value with VSVpp is listed as 103 ± 6.73 % RLU. The “inhibition on VSVpp” value in the assay with VSVpp (10 μM) is on record as “no inhibition”. Also, in assay [2], the “reduction in extracellular RNA level” value was found to be 3 log fold and the “reduction in intracellular RNA copies” value is listed as “about 1 log fold”. Moreover, in the assay on Dengue RVP, the “Dengue RVP reproducibility” value is recorded as “dose-dependent inhibition”. For the same compound, the “inhibitory activity in the HCVsc infection level” value in the assay with HCVsc, genotype 2a (10 μM, Huh 7.5.1 cells, luciferase 48 h) is “no significant inhibitory activities”. In addition, the “% RLU at 10 μM, HCVsc” value in the assay on HCVsc, genotype 2a (mean of five replicates ±SEM) turned out to be 104 ± 9.95 % RLU.
